Laboratory results as given in US20250281424A1 (New York Blood Center, Inc, priority 2020, published 2025).

Biological target: T1, human PF4 (Homo sapiens, UniProt P02776)
T1 construct: PF4 is a 70 amino acid, lysine-rich 7.8 kDa platelet-specific protein; made in house; host or cells: Escherichia coli BL21DE3 pLysS (pT7-7) and/or Drosophila S2 cells
T1 sequence (P02776 32-101): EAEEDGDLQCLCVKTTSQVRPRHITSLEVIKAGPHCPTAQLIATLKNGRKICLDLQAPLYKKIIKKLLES
Test: Inhibition of PF4 tetramer formation (BS3 cross-linking, SDS-PAGE)
Assay type: biochemical
Conditions: for inhibition at 1 µM: 1 μM inhibitor; for inhibition at 3 µM: 3 μM inhibitor (column A); for inhibition at 5 µM: 5 μM inhibitor; for inhibition at 10 µM: 10 μM inhibitor (column A); for IC50: read-out: IC50 of PF4 tetramer formation inhibition
Summary of the method: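 Monomer, dimer, trimer and tetramer fractions were quantified by densitometry after reducing 12% SDS-PAGE of BS3-cross-linked (0.2 mM, 30 min, room temperature) PF4. Before cross-linking, 10 μg/ml E. coli-expressed human WT PF4 in PBS was exposed to compound for 15 min at 37° C or 60 min at room temperature; controls lacked compound.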

[1] = read-out: % inhibition of PF4 tetramer formation at single concentration of inhibitor

Row | SMILES | inhibition at 3 µM [1] | inhibition at 5 µM [1] | inhibition at 10 µM [1] | IC50 | other results
1 | CC(C)(C)OC(=O)N1CC[C@H]1C(=O)C1C(=O)c2ccc(Oc3ccc4c(c3)C(=O)C(C(=O)[C@@H]3CCN3C(=O)OC(C)(C)C)C4=O)cc2C1=O (stereo partly drawn) [Example 273, tert-butyl (2S)-2-[5-({2-[(2S)-1-[(tert-butoxy)carbonyl]azetidine-2-carbonyl]-1,3-dioxo-2,3-dihydro-1H-inden-5-yl}oxy)-1,3-dioxo-2,3-dihydro-1H-indene-2-carbonyl]azetidine-1-carboxylate] | 20% | – | – | – | inhibition at 1 µM [1]: 20%
2 | CN1CCC(C(=O)C2C(=O)c3ccc(C(=O)c4ccc5c(c4)C(=O)C(C(=O)C4CCN(C)CC4)C5=O)cc3C2=O)CC1 (stereo not shown) [Example 266, 2-(1-methylpiperidine-4-carbonyl)-5-[2-(1-methylpiperidine-4-carbonyl)-1,3-dioxo-2,3-dihydro-1H-indene-5-carbonyl]-2,3-dihydro-1H-indene-1,3-dione] | 25% | – | – | – | –
3 | COC(=O)CCCC(=O)C1C(=O)c2ccc(C(=O)c3ccc4c(c3)C(=O)C(C(=O)CCCC(=O)OC)C4=O)cc2C1=O (stereo not shown) [Example 225, methyl 5-{5-[2-(5-methoxy-5-oxopentanoyl)-1,3-dioxo-2,3-dihydro-1H-indene-5-carbonyl]-1,3-dioxo-2,3-dihydro-1H-inden-2-yl}-5-oxopentanoate] | – | 87% | 90% | 3.2 µM | –
4 | C[C@H]1C[C@@H](C(=O)C2C(=O)c3ccc(S(=O)(=O)c4ccc5c(c4)C(=O)C(C(=O)[C@@H]4C[C@H](C)CN4C(=O)OC(C)(C)C)C5=O)cc3C2=O)N(C(=O)OC(C)(C)C)C1 (stereo partly drawn) [Example 224, tert-butyl (2S,4S)-2-[5-({2-[(2S,4S)-1-[(tert-butoxy)carbonyl]-4-methylpyrrolidine-2-carbonyl]-1,3-dioxo-2,3-dihydro-1H-inden-5-yl}sulfonyl)-1,3-dioxo-2,3-dihydro-1H-indene-2-carbonyl]-4-methylpyrrolidine-1-carboxylate] | – | 100% | 95% | 2.2 µM | –
5 | O=C(c1ccc2c(c1)C(=O)C(C(=O)NC1CCS(=O)(=O)C1)C2=O)c1ccc2c(c1)C(=O)C(C(=O)NC1CCS(=O)(=O)C1)C2=O (stereo not shown) [Example 361, N-(1,1-dioxo-1λ^6-thiolan-3-yl)-5-{2-[(1,1-dioxo-1λ^6-thiolan-3-yl)carbamoyl]-1,3-dioxo-2,3-dihydro-1H-indene-5-carbonyl}-1,3-dioxo-2,3-dihydro-1H-indene-2-carboxamide] | 34% | – | – | – | inhibition at 1 µM [1]: 9%
6 | CSCC(=O)C1C(=O)c2ccc(S(=O)(=O)c3ccc4c(c3)C(=O)C(C(=O)CSC)C4=O)cc2C1=O (stereo not shown) [Example 282, 2-[2-(methylsulfanyl)acetyl]-5-({2-[2-(methylsulfanyl)acetyl]-1,3-dioxo-2,3-dihydro-1H-inden-5-yl}sulfonyl)-2,3-dihydro-1H-indene-1,3-dione] | 45% | – | – | 3 µM | inhibition at 1 µM [1]: 29%
7 | CCCCc1ccc(NC(=O)C2C(=O)c3ccc(C(=O)c4ccc5c(c4)C(=O)C(C(=O)Nc4ccc(CCCC)cc4)C5=O)cc3C2=O)cc1 (stereo not shown) [Example 101, N-(4-butylphenyl)-5-{2-[(4-butylphenyl)carbamoyl]-1,3-dioxo-2,3-dihydro-1H-indene-5-carbonyl}-1,3-dioxo-2,3-dihydro-1H-indene-2-carboxamide] | – | 80% | 71% | – | –
8 | COCCCNC(=O)C1C(=O)c2ccc(S(=O)(=O)c3ccc4c(c3)C(=O)C(C(=O)NCCCOC)C4=O)cc2C1=O (stereo not shown) [Example 90, N-(3-methoxypropyl)-5-({2-[(3-methoxypropyl)carbamoyl]-1,3-dioxo-2,3-dihydro-1H-inden-5-yl}sulfonyl)-1,3-dioxo-2,3-dihydro-1H-indene-2-carboxamide] | – | – | – | 4.2 µM | –
9 | COCCCNC(=O)C1C(=O)c2ccc(C(=O)c3ccc4c(c3)C(=O)C(C(=O)NCCCOC)C4=O)cc2C1=O (stereo not shown) [Example 88, N-(3-methoxypropyl)-5-{2-[(3-methoxypropyl)carbamoyl]-1,3-dioxo-2,3-dihydro-1H-indene-5-carbonyl}-1,3-dioxo-2,3-dihydro-1H-indene-2-carboxamide] | – | – | – | 21 µM | –
10 | O=C(c1ccc2c(c1)C(=O)C(C(=O)Nc1ccc(Cl)cc1Cl)C2=O)c1ccc2c(c1)C(=O)C(C(=O)Nc1ccc(Cl)cc1Cl)C2=O (stereo not shown) [Example 80, N-(2,4-dichlorophenyl)-5-{2-[(2,4-dichlorophenyl)carbamoyl]-1,3-dioxo-2,3-dihydro-1H-indene-5-carbonyl}-1,3-dioxo-2,3-dihydro-1H-indene-2-carboxamide] | – | 90% | 90% | – | –
11 | O=C1c2ccc(S(=O)(=O)c3ccc4c(c3)C(=O)C(C(=O)C3CCCS3(=O)=O)C4=O)cc2C(=O)C1C(=O)C1CCCS1(=O)=O (stereo not shown) [Example 372, 2-(5-{[2-(1,1-dioxo-1λ^6-thiolane-2-carbonyl)-1,3-dioxo-2,3-dihydro-1H-inden-5-yl]sulfonyl}-1,3-dioxo-2,3-dihydro-1H-indene-2-carbonyl)-1λ^6-thiolane-1,1-dione] | 30% | – | – | – | –
12 | O=C(c1ccc2c(c1)C(=O)C(C(=O)COc1ccccc1)C2=O)c1ccc2c(c1)C(=O)C(C(=O)COc1ccccc1)C2=O (stereo not shown) [Example 143, 5,5-[1,3-dioxo-2-(2-phenoxyacetyl)-2,3-dihydro-1H-indene-5-carbonyl]-2-(2-phenoxyacetyl)-2,3-dihydro-1H-indene-1,3-dione] | – | – | – | 7 µM | –
13 | O=C(c1ccc2c(c1)C(=O)C(C(=O)NCCCc1ccccc1)C2=O)c1ccc2c(c1)C(=O)C(C(=O)NCCCc1ccccc1)C2=O (stereo not shown) [Example 24, 5,5′-carbonylbis(1,3-dioxo-indan-2-carboxylic acid (3-(phenyl)propyl)-amide)] | – | 83% | 89% | 5.11 µM | –
14 | O=C(CC1CCCCC1)C1C(=O)c2ccc(S(=O)(=O)c3ccc4c(c3)C(=O)C(C(=O)CC3CCCCC3)C4=O)cc2C1=O (stereo not shown) [Example 148, 2-(2-cyclohexylacetyl)-5-{[2-(2-cyclohexylacetyl)-1,3-dioxo-2,3-dihydro-1H-inden-5-yl]sulfonyl}-2,3-dihydro-1H-indene-1,3-dione] | – | 59% | 90% | – | –
15 | O=C(NC1CC1)C1C(=O)c2ccc(Oc3ccc4c(c3)C(=O)C(C(=O)NC3CC3)C4=O)cc2C1=O (stereo not shown) [Example 106, N-cyclopropyl-5-{[2-(cyclopropylcarbamoyl)-1,3-dioxo-2,3-dihydro-1H-inden-5-yl]oxy}-1,3-dioxo-2,3-dihydro-1H-indene-2-carboxamide] | – | – | – | ~4 µM | –
16 | CO[C@H](C)[C@H](N)C(=O)C1C(=O)c2ccc(C(=O)c3ccc4c(c3)C(=O)C(C(=O)[C@@H](N)[C@@H](C)OC)C4=O)cc2C1=O (stereo partly drawn) [Example 128, 2-[(2S,3R)-2-amino-3-methoxybutanoyl]-5-{2-[(2S,3R)-2-amino-3-methoxybutanoyl]-1,3-dioxo-2,3-dihydro-1H-indene-5-carbonyl}-2,3-dihydro-1H-indene-1,3-dione] | – | 51% | 87% | 7.8 µM | –
17 | Cc1ccc(NC(=O)C2C(=O)c3ccc(S(=O)(=O)c4ccc5c(c4)C(=O)C(C(=O)Nc4ccc(C)cc4)C5=O)cc3C2=O)cc1 (stereo not shown) [Example 92, N-(4-methylphenyl)-5-({2-[(4-methylphenyl)carbamoyl]-1,3-dioxo-2,3-dihydro-1H-inden-5-yl}sulfonyl)-1,3-dioxo-2,3-dihydro-1H-indene-2-carboxamide] | – | 60% | 65% | – | –
18 | CCOC(=O)NC(=O)C1C(=O)c2ccc(C(=O)c3ccc4c(c3)C(=O)C(C(=O)NC(=O)OCC)C4=O)cc2C1=O (stereo not shown) [Example 16, 5,5′-carbonylbis((1,3-dioxo-indane-2-carbonyl)-carbamic acid ethyl ester)] | – | – | – | 20 µM | inhibition at 30 µM (30 μM inhibitor, read-out: % inhibition of PF4 tetramer formation at single concentration of inhibitor): 78%
19 | O=C(c1ccc2c(c1)C(=O)C(C(=O)Cc1ccncc1)C2=O)c1ccc2c(c1)C(=O)C(C(=O)Cc1ccncc1)C2=O (stereo not shown) [Example 239, 5-{1,3-dioxo-2-[2-(pyridin-4-yl)acetyl]-2,3-dihydro-1H-indene-5-carbonyl}-2-[2-(pyridin-4-yl)acetyl]-2,3-dihydro-1H-indene-1,3-dione] | 100% | – | – | – | –
20 | COCCOCCC(=O)C1C(=O)c2ccc(S(=O)(=O)c3ccc4c(c3)C(=O)C(C(=O)CCOCCOC)C4=O)cc2C1=O (stereo not shown) [Example 178, 2-[3-(2-methoxyethoxy)propanoyl]-5-({2-[3-(2-methoxyethoxy)propanoyl]-1,3-dioxo-2,3-dihydro-1H-inden-5-yl}sulfonyl)-2,3-dihydro-1H-indene-1,3-dione] | – | 22% | 75% | – | –
21 | O=C1c2ccc(Oc3ccc4c(c3)C(=O)C(C(=O)[C@@H]3C[C@H]3C(=O)O)C4=O)cc2C(=O)C1C(=O)[C@@H]1C[C@H]1C(=O)O (stereo partly drawn) [Example 262, (1R,2R)-2-({5-[(2-{[(1R,2R)-2-carboxycyclopropyl](hydroxy)methylidene}-1,3-dioxo-2,3-dihydro-1H-inden-5-yl)oxy]-1,3-dioxo-2,3-dihydro-1H-inden-2-ylidene}(hydroxy)methyl)cyclopropane-1-carboxylic acid] | 67% | – | – | 1.33 µM | inhibition at 1 µM [1]: 49%
22 | CC(C)(C)OC(=O)NCCC(=O)C1C(=O)c2ccc(C(=O)c3ccc4c(c3)C(=O)C(C(=O)CCNC(=O)OC(C)(C)C)C4=O)cc2C1=O (stereo not shown) [Example 268, tert-butyl N-(3-{5-[2-(3-{[(tert-butoxy)carbonyl]amino}propanoyl)-1,3-dioxo-2,3-dihydro-1H-indene-5-carbonyl]-1,3-dioxo-2,3-dihydro-1H-inden-2-yl}-3-oxopropyl)carbamate] | 25% | – | – | – | inhibition at 1 µM [1]: 7%
